Measured values from the supplement of paper PMC10307832.

Experiments:
Experiment in all cases: relative viability (nuclei count vs DMSO), 5 days (fraction); higher = more cells survive
Cediranib + Trametinib = compound: COc1cc2c(Oc3ccc4[nH]c(C)cc4c3F)ncnc2cc1OCCCN1CCCC1 [Cediranib] + CC(=O)Nc1cccc(-n2c(=O)n(C3CC3)c(=O)c3c(Nc4ccc(I)cc4F)n(C)c(=O)c(C)c32)c1 [Trametinib] (partner 0.02 µM)
Outline: (§1)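 Lung cancer cell lines, seeded in 1536-well plates, were treated the following day by pin tool with a single drug or with five library-drug doses (not always all listed) in √10 steps on top of a fixed anchor-drug dose. Cells were fixed and nuclei stained in one step after 5 days, and nuclei were counted. Relative viability is the nuclei count for treated wells divided by that for vehicle wells, reported as medians of duplicate plates.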

Decitabine + Navitoclax = compound: Nc1ncn([C@H]2C[C@H](O)[C@@H](CO)O2)c(=O)n1 [Decitabine] + CC1(C)CCC(c2ccc(Cl)cc2)=C(CN2CCN(c3ccc(C(=O)NS(=O)(=O)c4ccc(N[C@H](CCN5CCOCC5)CSc5ccccc5)c(S(=O)(=O)C(F)(F)F)c4)cc3)CC2)C1 [Navitoclax] (partner 0.5 µM)
Outline: as §1

Cediranib + Vorinostat = compound: COc1cc2c(Oc3ccc4[nH]c(C)cc4c3F)ncnc2cc1OCCCN1CCCC1 [Cediranib] + O=C(CCCCCCC(=O)Nc1ccccc1)NO [Vorinostat] (partner 1 µM)
Outline: as §1

Cell Line | relative viability (Cediranib + Trametinib; first compound 0.04 µM) | relative viability (Cediranib + Trametinib; first compound 0.1265 µM) | relative viability (Cediranib + Trametinib; first compound 0.4 µM) | relative viability (Cediranib + Trametinib; first compound 1.265 µM) | relative viability (Cediranib + Trametinib; first compound 4 µM) | relative viability (Decitabine + Navitoclax; first compound 0.04 µM) | relative viability (Decitabine + Navitoclax; first compound 0.1265 µM) | relative viability (Decitabine + Navitoclax; first compound 0.4 µM) | relative viability (Decitabine + Navitoclax; first compound 1.265 µM) | relative viability (Decitabine + Navitoclax; first compound 4 µM) | relative viability (Cediranib + Vorinostat; first compound 0.04 µM) | relative viability (Cediranib + Vorinostat; first compound 0.1265 µM) | relative viability (Cediranib + Vorinostat; first compound 0.4 µM) | relative viability (Cediranib + Vorinostat; first compound 1.265 µM) | relative viability (Cediranib + Vorinostat; first compound 4 µM)
LK-2 | 0.889 | 0.573 | 0.668 | 0.742 | 0.643 | 0.739 | 0.881 | 0.664 | 0.358 | 0.332 | 0.352 | 0.332 | 0.421 | 0.353 | 0.279
LOU-NH91 | 0.841 | 0.808 | 0.796 | 0.751 | 0.786 | 0.372 | 0.645 | 0.503 | 0.458 | 0.525 | 0.898 | 0.696 | 0.873 | 0.823 | 0.857
LU99A | 0.553 | – | 0.544 | 0.515 | 0.568 | 0.745 | 0.711 | 0.771 | 0.53 | 0.502 | 0.456 | – | 0.51 | 0.407 | 0.578
LXF-289 | 0.671 | – | 0.676 | 0.651 | 0.632 | 0.65 | 0.53 | 0.44 | 0.308 | 0.29 | 0.754 | – | 0.724 | 0.812 | 0.787
NCI-H23 | 0.483 | 0.426 | 0.419 | 0.325 | 0.424 | 0.558 | 0.45 | 0.305 | 0.21 | 0.224 | 0.545 | 0.487 | 0.532 | 0.587 | 0.789
NCI-H322M | 0.475 | 0.489 | 0.526 | 0.528 | 0.568 | 0.841 | 0.892 | 0.777 | 0.505 | 0.509 | 0.876 | 1.05 | 0.818 | 0.983 | 0.871
NCI-H358 | 0.148 | 0.156 | 0.123 | 0.106 | 0.131 | – | – | – | – | – | 0.689 | 1.05 | 0.638 | 0.705 | 0.648
NCI-H441 | 0.631 | 0.504 | 0.408 | 0.483 | 0.399 | 0.258 | 0.293 | 0.274 | 0.259 | 0.223 | 0.864 | 0.825 | 0.767 | 0.824 | 0.909
NCI-H460 | 0.111 | 0.156 | 0.138 | 0.153 | 0.214 | 0.974 | 1.03 | 0.612 | 0.292 | 0.198 | 0.795 | 0.792 | 0.661 | 0.678 | 0.822
NCI-H520 | 0.783 | 0.435 | 0.54 | 0.483 | 0.521 | 0.941 | 0.804 | 0.615 | 0.819 | 0.467 | 0.792 | 0.622 | 0.581 | 0.576 | 0.676
NCI-H522 | 0.785 | 0.675 | 0.755 | 0.864 | 0.756 | – | – | – | – | – | 0.842 | 0.472 | 0.925 | 0.817 | 0.811
NCI-H596 | 0.767 | 0.778 | 0.73 | 0.771 | 0.918 | 0.912 | 0.868 | 0.638 | 0.688 | 0.587 | 0.584 | 0.488 | 0.585 | 0.682 | 0.836
NCI-H647 | 0.48 | 0.428 | 0.441 | 0.515 | 0.491 | 0.796 | 0.836 | 0.355 | 0.219 | 0.178 | 0.689 | 0.594 | 0.56 | 0.509 | 0.684
NCI-H650 | 0.96 | 0.85 | 1.06 | 1.09 | 1.03 | – | – | – | – | – | 0.363 | 0.319 | 0.526 | 0.356 | 0.454
NCI-H661 | 0.609 | 0.751 | 0.567 | 0.522 | 0.61 | – | – | – | – | – | 0.905 | 0.796 | 0.763 | 0.773 | 0.911
NCI-H727 | 0.374 | 0.376 | 0.358 | 0.374 | 0.384 | 0.302 | 0.361 | 0.343 | 0.272 | 0.292 | 0.934 | 0.913 | 1.08 | 1.21 | 1.27
NCI-H838 | 0.508 | 0.494 | 0.491 | 0.514 | 0.705 | 0.734 | 0.512 | 0.321 | 0.366 | 0.309 | 0.703 | 0.712 | 0.678 | 0.763 | 0.838
NCI-H1299 | – | – | – | – | – | 1.04 | 1.03 | 1.02 | 0.898 | 0.848 | – | – | – | – | –
NCI-H1355 | 0.401 | 0.432 | 0.417 | 0.439 | 0.464 | 0.695 | 0.583 | 0.471 | 0.248 | 0.913 | 0.688 | 0.684 | 0.572 | 0.544 | 0.616
NCI-H1395 | 1.05 | 1.04 | 0.999 | 0.954 | 0.904 | 0.913 | 0.733 | 0.715 | 0.598 | 0.703 | 0.686 | 0.689 | 0.601 | 0.645 | 0.711
NCI-H1437 | 0.521 | 0.449 | 0.509 | 0.625 | 0.621 | 0.768 | 0.676 | 0.371 | 0.271 | 0.27 | 0.875 | 0.778 | 0.872 | 0.819 | 0.898
NCI-H1648 | 0.442 | 0.499 | 0.539 | 0.462 | 0.495 | – | – | – | – | – | 0.569 | 0.474 | 0.511 | 0.271 | 0.425
NCI-H1703 | – | – | – | – | – | 0.845 | 0.642 | 0.255 | 0.189 | 0.253 | – | – | – | – | –
NCI-H1792 | – | 0.407 | 0.375 | 0.521 | 0.458 | 0.6 | 0.672 | 0.625 | 0.454 | 0.304 | – | – | – | – | –
NCI-H2342 | 0.841 | 0.897 | 0.849 | 0.877 | 0.812 | – | – | – | – | – | 0.712 | 0.791 | 0.733 | 0.613 | 0.758
SW 900 | 0.76 | 1.08 | 0.636 | 0.83 | 0.885 | – | – | – | – | – | 0.425 | 0.413 | 0.438 | 0.478 | 0.495
